Assay results as given in the NIST ThermoML archive (doi:10.1021/je0495583).
± gives the expanded uncertainty stated by the source.

What was measured:
[1] = refractive index (Na D-line) (dimensionless); conditions: 298.15 K; 101.33 kPa; Liquid; Standard Abbe refractometry
[2] = 293.15 K; 101.33 kPa; Liquid; Pycnometric method

SMILES	refractive index [1]	mass density [2] [kg/m3]
CCCCCC [hexane]	1.3722 ± 0.0007	659.4 ± 0.6
Cc1ccccc1 [toluene]	1.4941 ± 0.0008	866.2 ± 0.9
COC(C)(C)C [2-methoxy-2-methylpropane]	1.366 ± 0.0008	740.5 ± 0.8
C1CCCCC1 [cyclohexane]	1.4236 ± 0.0008	778.4 ± 0.8
CCC(C)(C)OC [2-methoxy-2-methylbutane]	1.3867 ± 0.0008	770.6 ± 0.8
